Entries after “also recorded” stand apart in the source; their conditions may differ.
Tests used:
[1] = target: T1, mammalian V-ATPase purified from pig kidneys (Sus scrofa, UniProt Q9TVC1); test: Biochemical V-ATPase (ATP hydrolysis) assay; settings: concentrations as low as 1 μM
T1 construct: the entire V-ATPase complex (800 kDa) was purified as described previously from porcine kidneys; from tissue; host or cells: porcine kidney
Protocol: V-ATPase was purified as described previously from yeast[82] using the detergent dodecylmaltoside and porcine kidney[83] using the detergent glycol-diosgenin. ATPase assays with purified V-ATPase were performed as described previously. 249C (mammalian: 0.1, 1, 10, 100 μM and yeast: 5, 10 and 100 μM) or BafA1 (1 μM) were added to the reaction and compared with a negative control to which only DMSO was added. Enzyme-coupled ATPase biochemical activity assays were performed in a 96-well plate as described previously.

Yeast V-ATPase = target: T2, Yeast V-ATPase (Saccharomyces cerevisiae, UniProt P25515+P41807); test: Biochemical V-ATPase (ATP hydrolysis) assay
T2 construct: V-ATPase was purified as described previously from yeast[82] using the detergent dodecylmaltoside; endogenous in cells; host or cells: yeast
T2 sequence (P25515 whole entry): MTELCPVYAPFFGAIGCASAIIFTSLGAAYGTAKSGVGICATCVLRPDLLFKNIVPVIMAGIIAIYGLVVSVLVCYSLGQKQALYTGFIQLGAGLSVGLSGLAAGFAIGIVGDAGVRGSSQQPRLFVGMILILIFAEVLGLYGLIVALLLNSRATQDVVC
T2 sequence (P41807 2-478): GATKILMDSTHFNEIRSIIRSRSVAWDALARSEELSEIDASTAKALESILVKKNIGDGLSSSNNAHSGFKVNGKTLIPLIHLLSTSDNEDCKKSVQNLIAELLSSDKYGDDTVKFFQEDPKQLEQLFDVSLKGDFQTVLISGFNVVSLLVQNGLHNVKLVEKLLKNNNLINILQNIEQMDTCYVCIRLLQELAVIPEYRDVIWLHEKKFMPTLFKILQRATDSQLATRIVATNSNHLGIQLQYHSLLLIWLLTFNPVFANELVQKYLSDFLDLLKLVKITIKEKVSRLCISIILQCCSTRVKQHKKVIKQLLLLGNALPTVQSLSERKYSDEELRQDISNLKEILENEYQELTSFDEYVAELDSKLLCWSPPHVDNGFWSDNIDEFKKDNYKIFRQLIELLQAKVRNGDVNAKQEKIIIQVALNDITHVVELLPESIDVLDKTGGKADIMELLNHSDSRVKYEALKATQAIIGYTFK
Protocol: V-ATPase was purified as described previously from yeast[82] using the detergent dodecylmaltoside and porcine kidney[83] using the detergent glycol-diosgenin. ATPase assays with purified V-ATPase were performed as described previously. 249C (mammalian: 0.1, 1, 10, 100 μM and yeast: 5, 10 and 100 μM) or BafA1 (1 μM) were added to the reaction and compared with a negative control to which only DMSO was added. Enzyme-coupled ATPase biochemical activity assays were performed in a 96-well plate as described previously. […]
appears to cause accumulation of high molecular weight entities. Representative of 3 independent experiments. […]
observed. Data shown are mean ± SD ( n = 3) Two-tailed student’s t-test (C) ATP-dependent fluorescence quenching in yeast (me an ± SD; n = 3 ) Two-t ailed student’s t-test (D) SDS PAGE over th e cou rse of recombinant human ATP6V1H protein purification. 1. Mark ers; 2. Total l ysate (GST-fusion […]); 3. Soluble lysate; 4.
GSTrap flow-through; 5. GSTrap elute; 6. Post thrombin cleavage (target 54 kDa, GST 25 kDa); 7. Subtractive GSTrap flow -through; 8. Markers; 9. Final sample, 1 µg protein load. Repres entative of 2 independent ex periments. (E) Structure of biotin- 249C. […]
interfere with V-ATPas e binding. ( F) Experimental schematic of Bio-la yer inferometr y (B L I) .
(1 picture or pasted object on this page, not shown here)

[2] = tested on: V-ATPase-dependent proton transport in HEK293T cells; test: Proton pumping assay, FITC-Dextran-loaded lysosomes; format: cell-based, human; settings: 1 h treatment, listed as BafA1
Description: Figure 4. […] (A) Model of the reversible assembly of V-ATPase. Cytosolic V1 subunits are depicted in blue and membrane Vo subunits in purple. Upon V-ATPase assembly, ATP is hydrolyzed to ADP accompanied by proton (H^+) pumping and luminal acidification (decrease in pH) (Created with BioRender). […] The amount of subunit B2 present in the membrane fraction indicates the amount of assembled V-ATPase. A representative Western blot is presented. […] Cells were mechanically lysed, and a fraction containing FITC-Dextran-loaded lysosomes was isolated by sedimentation centrifugation. Fluorescence was measured over time to assess pH-dependent quenching following addition of 1 mM magnesium-ATP (predetermined). […] Representative of 5 individual experiments with n = 3 for each is presented (mean ± SD) (D) Mammalian V-ATPase activity measured in the absence and presence of 1 μM 249C and 1 μM BafA1. Data shown are mean ± SD; n = 3. […]
4 × 10^6 HEK 293T cells were plated in 10-cm plates. […] Sample fluorescence was excited at 490 nm, and emission fluorescence at 520 nm was measured continuously in BioTek plate reader (Synergy) using Gen5 software (version 3.05). After initial fluorescence stabilization, 1 mM ATP and 2 mM MgCl2 were added to initiate ATPase activity and proton pumping into the lysosomes, which causes quenching of FITC in the lysosomal lumen. […]

human primary cells = test: BioMAP Safety and Toxicology screening profile; format: cell-based
Protocol: The BioMAP Toxicity Screening Profile was performed as described previously.

hERG [3] = target: T3, hERG (Homo sapiens, UniProt Q12809); test: hERG fluorescence polarization assay; settings: human
T3 sequence (Q12809 whole entry): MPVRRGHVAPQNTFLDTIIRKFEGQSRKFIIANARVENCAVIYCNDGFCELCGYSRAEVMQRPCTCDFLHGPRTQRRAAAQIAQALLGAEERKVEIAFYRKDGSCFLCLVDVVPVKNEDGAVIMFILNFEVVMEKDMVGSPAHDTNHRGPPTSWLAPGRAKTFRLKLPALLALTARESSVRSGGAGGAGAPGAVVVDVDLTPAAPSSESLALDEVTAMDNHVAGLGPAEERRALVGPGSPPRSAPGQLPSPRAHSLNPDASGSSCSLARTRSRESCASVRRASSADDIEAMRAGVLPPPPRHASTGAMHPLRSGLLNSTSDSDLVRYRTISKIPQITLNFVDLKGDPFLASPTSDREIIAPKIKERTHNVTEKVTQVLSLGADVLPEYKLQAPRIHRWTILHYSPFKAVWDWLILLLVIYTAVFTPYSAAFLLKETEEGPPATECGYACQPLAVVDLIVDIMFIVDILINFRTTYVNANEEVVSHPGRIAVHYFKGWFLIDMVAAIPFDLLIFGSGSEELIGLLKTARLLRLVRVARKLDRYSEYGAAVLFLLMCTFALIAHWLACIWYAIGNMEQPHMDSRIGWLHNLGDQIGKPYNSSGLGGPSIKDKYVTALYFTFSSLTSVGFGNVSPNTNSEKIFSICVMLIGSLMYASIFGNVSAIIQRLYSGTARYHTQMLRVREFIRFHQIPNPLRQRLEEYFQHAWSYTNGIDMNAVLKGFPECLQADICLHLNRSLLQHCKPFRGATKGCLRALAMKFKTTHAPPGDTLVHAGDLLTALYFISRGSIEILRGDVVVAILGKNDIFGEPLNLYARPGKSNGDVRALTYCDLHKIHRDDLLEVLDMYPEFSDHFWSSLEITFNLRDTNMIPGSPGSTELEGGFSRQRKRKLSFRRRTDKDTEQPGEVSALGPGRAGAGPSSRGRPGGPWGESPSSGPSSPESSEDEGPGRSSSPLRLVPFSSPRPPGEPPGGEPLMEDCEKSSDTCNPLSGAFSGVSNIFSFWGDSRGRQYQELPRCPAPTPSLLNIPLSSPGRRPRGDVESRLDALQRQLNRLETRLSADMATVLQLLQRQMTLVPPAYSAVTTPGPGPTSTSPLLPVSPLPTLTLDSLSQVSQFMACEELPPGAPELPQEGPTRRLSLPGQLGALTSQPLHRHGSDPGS

[4] = target: human ether-à-go-go-related gene (hERG) (Homo sapiens, UniProt Q12809); test: hERG fluorescence polarization assay; settings: at 30 μM
Chain of human ether-à-go-go-related gene (hERG) (Q12809 whole entry): as above

hERG [5] = target: T3, hERG; test: in vitro

T1 sequence (Q9TVC1 whole entry): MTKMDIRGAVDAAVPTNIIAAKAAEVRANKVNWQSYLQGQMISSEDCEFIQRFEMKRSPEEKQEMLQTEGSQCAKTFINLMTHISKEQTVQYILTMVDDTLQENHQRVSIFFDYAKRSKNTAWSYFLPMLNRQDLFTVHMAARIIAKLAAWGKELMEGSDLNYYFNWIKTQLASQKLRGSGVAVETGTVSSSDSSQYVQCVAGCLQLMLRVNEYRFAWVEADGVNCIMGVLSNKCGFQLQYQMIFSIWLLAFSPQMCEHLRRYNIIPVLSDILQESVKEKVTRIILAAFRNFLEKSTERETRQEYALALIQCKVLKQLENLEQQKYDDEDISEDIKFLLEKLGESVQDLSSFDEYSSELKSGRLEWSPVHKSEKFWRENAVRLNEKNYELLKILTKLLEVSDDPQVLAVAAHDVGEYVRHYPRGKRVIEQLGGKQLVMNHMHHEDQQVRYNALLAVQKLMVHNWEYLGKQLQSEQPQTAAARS
T1 sequence (Q29048 whole entry partner): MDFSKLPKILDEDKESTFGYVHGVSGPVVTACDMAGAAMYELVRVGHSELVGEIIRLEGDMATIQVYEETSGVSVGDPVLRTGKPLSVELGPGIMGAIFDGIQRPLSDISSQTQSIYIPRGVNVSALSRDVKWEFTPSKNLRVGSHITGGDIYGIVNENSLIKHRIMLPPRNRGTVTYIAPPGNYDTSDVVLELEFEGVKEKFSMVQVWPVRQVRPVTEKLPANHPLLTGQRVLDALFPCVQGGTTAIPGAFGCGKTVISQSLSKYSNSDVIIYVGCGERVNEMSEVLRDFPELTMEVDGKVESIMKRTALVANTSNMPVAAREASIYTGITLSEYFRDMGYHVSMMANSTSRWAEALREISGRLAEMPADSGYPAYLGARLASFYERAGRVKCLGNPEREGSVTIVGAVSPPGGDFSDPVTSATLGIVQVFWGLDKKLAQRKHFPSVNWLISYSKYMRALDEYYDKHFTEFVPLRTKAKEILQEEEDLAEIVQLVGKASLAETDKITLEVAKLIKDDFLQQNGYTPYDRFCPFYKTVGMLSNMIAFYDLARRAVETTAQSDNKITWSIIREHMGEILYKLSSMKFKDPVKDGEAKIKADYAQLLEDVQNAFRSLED

Structure (SMILES): CO/C1=C\C(C)=C\[C@@H](C)[C@@H](O)[C@@H](C)C/C(C)=C/C=C/[C@H](OC)[C@@H]([C@@H](C)[C@@H](O)[C@H](C)[C@@]2(O)C[C@@H](O)[C@H](C)[C@@H](C(C)C)O2)OC1=O [Bafilomycin A1, reference compound]
- ATP hydrolysis of intact mammalian V-ATPase [1]: blocked ATP hydrolysis
- Yeast V-ATPase activity (Yeast V-ATPase): modest inhibition
- V-ATPase-dependent proton transport (ATP-dependent fluorescence quenching) [2]: inhibited V-ATPase-dependent proton transport; also recorded: ATP-dependent fluorescence quenching was not observed
- toxicity categories / adverse events in BioMAP safety profiling (human primary cells; over 100 biomarker readouts): 2
- inhibition at 30 µM (hERG [3]): 35%

Structure (SMILES): CN(CCCCCCNc1ccnc2cc(Cl)ccc12)CCCCCCNc1ccnc2cc(Cl)ccc12 [DC661]
- Percent inhibition of hERG [4]: 100%

Structure (SMILES): CCN(CCO)CCCC(C)Nc1ccnc2cc(Cl)ccc12 (stereo not shown) [HCQ, hydroxychloroquine]
- BioMAP Screening Profile 3C:SRB (human primary cells; human, 1000 nM): 0
- BioMAP Screening Profile 4H:SRB (human primary cells; human, 1000 nM): 0
- BioMAP Screening Profile BE3C:SRB (human primary cells; human, 1000 nM): 0
- BioMAP Screening Profile BF4T:SRB (human primary cells; human, 1000 nM): 0
- BioMAP Screening Profile BT:PBMC Cytotoxicity (human primary cells; human, 1000 nM): 0
- BioMAP Screening Profile CASM3C:SRB (human primary cells; human, 1000 nM): 0
- BioMAP Screening Profile Cytotoxicity (human primary cells; human, 1000 nM): 0
- BioMAP Screening Profile HDF3CGF:SRB (human primary cells; human, 1000 nM): 0
- BioMAP Screening Profile KF3CT:SRB (human primary cells; human, 1000 nM): 0
- BioMAP Screening Profile LPS:SRB (human primary cells; human, 1000 nM): 0
- BioMAP Screening Profile MyoF:SRB (human primary cells; human, 1000 nM): 0
- BioMAP Screening Profile SAg:PBMC Cytotoxicity (human primary cells; human, 1000 nM): 0
- BioMAP Screening Profile SAg:SRB (human primary cells; human, 1000 nM): 0
- BioMAP Screening Profile lMphg:SRB (human primary cells; human, 1000 nM): 0
- BioMAP Screening Profile lMphg:SRB-Mphg (human primary cells; human, 1000 nM): 0
- inhibition at 30 µM (hERG [5]): ~60%
